# Source: patent US7939322B2, “Cells expressing pluripotency markers and expressing markers characteristic of the definitive endoderm” (Centocor Ortho Biotech Inc., priority 2008, dated 2011)
# Columns and labels:
# EXPRES 01 cells = assay: CXCR4 expression by FACS after DE differentiation; type: cell-based, human; settings: passage 19, day 4; 100 nM GSK-3B inhibitor IX with 0.5% FBS, 20 ng/ml WNT-3a, 100 ng/ml activin-A (about 17% in earlier protocol without inhibitor)
# Protocol: (§1) Adhered human embryonic stem cells were removed from culture plates by a five-minute incubation with TrypLE™ Express solution (Invitrogen, CA). Released cells were resuspended in human embryonic stem cell culture medium and recovered by centrifugation, followed by washing and resuspending the cells in a staining buffer consisting of 2% BSA, 0.05% sodium azide in PBS (Sigma, Mo.). As appropriate, the cells were Fc-receptor blocked for 15 minutes using a 0.1% γ-globulin (Sigma) solution. […] Controls included appropriate isotype matched antibodies, unstained cells, and cells stained only with secondary conjugated antibody. All incubations with antibodies were performed for 30 mins at 4° C., after which the cells were washed with the staining buffer. Samples that were stained with unconjugated primary antibodies were incubated for an additional 30 mins at 4° C. with secondary conjugated PE or -APC labeled antibodies. See Table IB for a list of secondary antibodies used. Washed cells were pelleted and resuspended in the staining buffer, and the cell surface molecules were identified using a FACS Array (BD Biosciences) instrument, collecting at least 10,000 events. […]
# EXPRES 02 cells = assay: CXCR4 expression by FACS after DE differentiation; type: cell-based, human; settings: passage 14, day 4; 100 nM GSK-3B inhibitor IX with 0.5% FBS, 20 ng/ml WNT-3a, 100 ng/ml activin-A (about 40% in earlier protocol without inhibitor)
# Protocol: as §1
# [1] = system: human embryonic stem cell line H9; assay: Attachment of single human embryonic stem cells on uncoated TCPS with or without ROCK inhibitor; type: cell-based; settings: 10 μm ROCK inhibitor, 24 hrs after seeding on TCPS, hypoxic (approximately 3% O2), compared to cultures without ROCK inhibitor
# Protocol: Cells from the human embryonic stem cell line H9 at passage 35 lines were cultured under hypoxic conditions (approximately 3% O2) for at least three passages. The cells were cultured in MEF-CM supplemented with 8 ng/ml of bFGF and plated on MATRIGEL coated plates according to Example 1. At approximately 60% confluency, the cultures were exposed to TrypLE™ Express solution (Invitrogen, CA) for 5 mins. Released cells were resuspended in DM-F12+2% FBS medium, recovered by centrifugation, and counted using a hemocytometer. The released cells were seeded at 1000-10,000 cells/cm^2 on tissue culture polystyrene (TCPS) flasks and cultured in DM-F12+2% FBS+100 ng/ml activin-A+20 ng/ml WNT-3A+50 ng/ml of IGF-I+0.1 mM mercaptoethanol (Invitrogen, CA), non-essential amino acids (1×, NEAA from Invitrogen, CA)+/−10 μm ROCK inhibitor (Y-27632, Calbiochem, CA) under hypoxic conditions (approximately 3% O2) at 37° C. in a standard tissue culture incubator. The TCPS flaks were not coated with MATRIGEL or other extracellular matrix proteins. The media was changed daily. The first passage cells are referred to as P1. […] EXPRES cells derived using the ROCK inhibitor, Y27632 were designated as EXPRES 15.
# [2] = system: expanded cells derived from human embryonic stem cell line H9; assay: Real-time PCR of DE and visceral endoderm markers in expanded cells; type: cell-based
# Protocol: Real-time PCR amplification and quantitative analysis: Unless otherwise stated, all reagents were purchased from Applied Biosystems. Real-time PCR reactions were performed using the ABI PRISM® 7900 Sequence Detection System. TAQMAN® UNIVERSAL PCR MASTER MIX® (ABI, CA) was used with 20 ng of reverse transcribed RNA in a total reaction volume of 20 μl. Each cDNA sample was run in duplicate to correct for pipetting errors. Primers and FAM-labeled TAQMAN® probes were used at concentrations of 200 nM. The level of expression for each target gene was normalized using a human glyceraldehyde-3-phosphate dehydrogenase (GAPDH) endogenous control previously developed by Applied Biosystems. SOX-17 primers were designed using the PRIMERS program (ABI, CA) and were the following sequences: SOX-17: TGGCGCAGCAGATACCA, AGCGCCTTCCACGACTTG, and […]. After an initial incubation at 50° C. for 2 min followed by 95° C. for 10 min, samples were cycled 40 times in two stages—a denaturation step at 95° C. for 15 sec followed by an annealing/extension step at 60° C. for 1 min. Data analysis was carried out using GENEAMP®7000 Sequence Detection System software. For each primer/probe set, a Ct value was determined as the cycle number at which the fluorescence intensity reached a specific value in the middle of the exponential region of amplification. Relative gene expression levels were calculated using the comparative Ct method. Briefly, for each cDNA sample, the endogenous control Ct value was subtracted from the gene of interest Ct to give the delta Ct value (ΔCt). The normalized amount of target was calculated as 2-ΔCt, assuming amplification to be 100% efficiency. Final data were expressed relative to a calibrator sample.
# Cultures derived from the parental human embryonic stem cell line H9 according to the methods described in Example 6 were passaged every 4-7 days. FIG. 5 depicts real-time PCR results for the expanded cells cultured in 2% FBS+DMEM-F12+100 ng/ml of activin-A+20 of WNT3A for three passages. […] There is a clear decrease in DE markers, such as SOX-17 and HNF-3 beta following each passage. […]
# [3] = system: Mouse Embryo Fibroblast (MEF); assay: Cell cycle analysis of mitomycin treated feeder cells; type: cell-based
# Protocol: MEF cells, derived from E13 to 13.5 mouse embryos, were purchased from Charles River. MEF cells were expanded in DMEM medium supplemented with 10% FBS (Hyclone), 2 mM glutamine, and 100 mM MEM nonessential amino acids. Sub-confluent MEF cell cultures were treated with 10 μg/ml mitomycin C (Sigma, St. Louis, Mo.) for 3 h to arrest cell division, then trypsinized and plated at 2×10^4/cm2 on 0.1% bovine gelatin-coated dishes. MEF cells from passage two through four were used as feeder layers. […] For cell cycle analysis, cells were stained with 7AAD, and analyzed on FACS Array.
# EXPRES 03 cells = assay: Proliferation and cell cycle analysis (BRDU incorporation, 7AAD); type: cell-based, human
# Protocol: Methods: Cells were seeded at 5,000-10,000 cells/cm^2 in Cell Bind tissue culture flasks (Corning) and cultured for 2-4 days. EXPRES 03 cells were cultured either in growth medium containing 2% FBS in DMEM/F12 and Activin-A (100 ng/ml), wnt3a (10-20 ng/ml) and IGF (50 ng/ml). For comparative proliferation analysis, IGF was sometimes omitted from the growth factor cocktail. Cell proliferation was analyzed using the APC BRDU Flow kit according to the Manufacturer's recommendations (BD Biosciences, San Diego, Calif.). Briefly, cells were pulsed with BRDU for 1-2 hrs at the end of culture period, released using Tryple E Express and counted. Cells were fixed in BD Cytofix/Cytosperm Buffer, incubated for 30 min, followed by incubation with BD Cytoperm buffer for 10 minutes on ice. Cells were then treated with DNAse for 1 hr at 37° C. to expose incorporated BRDU, followed by staining with APC conjugated anti-BRDU antibody. For cell cycle analysis, cells were stained with 7AAD, and analyzed on FACS Array.
# EXPRES cells = assay: Population doubling time of EXPRES cells in growth media; type: cell-based, human; settings: H9-derived EXPRES cells on TCPS, hypoxic; IGF-I at 50 ng/ml added to growth media (DMEM-F12+2% FBS+100 ng/ml activin-A+20 ng/ml WNT-3A)
# Protocol: Cells from the human embryonic stem cell lines H1 and H9 various passages (Passage 30-54) were cultured under hypoxic conditions (approximately 3% 02) for at least three passages. The cells were cultured in MEF-CM supplemented with 8 ng/ml of bFGF and plated on MATRIGEL coated plates according to Example 1. The cells were exposed to the DE protocol outlined in Example 5. At days 3-6, the cultures were exposed to TrypLE™ Express solution (Invitrogen, CA) for 5 mins. Released cells were resuspended in DMEM-F12+2% FBS medium, recovered by centrifugation, and counted using a hemocytometer. The released cells were seeded at 1000-10,000 cells/cm^2 on tissue culture polystyrene (TCPS) treated flasks and cultured in DMEM-F12+2% FBS+100 ng/ml activin-A+20 ng/ml WNT-3A under hypoxic conditions (approximately 3% O2) at 37° C. in standard tissue culture incubator. The TCPS flaks were not coated with MATRIGEL or other extracellular matrix proteins. The media was changed daily. In some cultures, the media was further supplemented with 10-50 ng/ml of IGF-I (insulin growth factor-I from R&D Systems, MN) or 1×ITS (Insulin, transferrin, and selenium from Invitrogen, Ca). In some of the culture conditions the basal media (DM-F12+2% FBS) was further supplemented with 0.1 mM mercaptoethanol (Invitrogen, CA) and non-essential amino acids (1×, NEAA from Invitrogen, CA). […]
# [4] = addition of 50 ng/ml IGF-I and withdrawal of Activin-A and WNT-3A
compound,measurement,setting,value
O=C1Nc2cc(Br)ccc2/C1=C1/Nc2ccccc2/C1=N\O [GSK-3B inhibitor IX],CXCR4 positive cells,EXPRES 01 cells,approximately 57%
same,CXCR4 positive cells,EXPRES 02 cells,approximately 86%
C[C@@H](N)[C@H]1CC[C@H](C(=O)Nc2ccncc2)CC1 [Y-27632],number of attached cells,[1],significantly larger number of attached cells
WNT3A,expression of DE markers,[2]; WNT3A added to growth media containing activin-A,significant boost
"CO[C@@]12[C@H](COC(N)=O)C3=C(C(=O)C(C)=C(N)C3=O)N1C[C@@H]1N[C@@H]12 [mitomycin, mitomycin C]",cells in G2/M phase,[3],64%
IGF-I: insulin growth factor-I from R&D Systems; recombinant human IGF-1,"frequency of cells in S-phase, presence versus absence of IGF",EXPRES 03 cells; BRDU exposure for 1 hour or more,only marginal differences
same,number of cells grown in presence of IGF relative to absence of IGF,"EXPRES 03 cells; IGF 50 ng/ml, after 3-4 days",2-3 times
same,population doubling time,EXPRES cells,approximately 55 hrs
same,expression of DE markers along with OCT-4,[2]; [4],precipitous drop
same,"expression of visceral endoderm markers, such as SOX-7 and AFP",[2]; [4],increase
